Numbers after ± are expanded uncertainties.
Test: molar heat capacity at constant pressure
Settings: 101.33 kPa, Crystal, Relaxation calorimetry

[Al] [aluminum]
Settings	molar heat capacity at constant pressure [J/K/mol]
5.284 K	0.011 ± 0.001
9.67 K	0.035 ± 0.001
14.08 K	0.085 ± 0.001
18.45 K	0.181 ± 0.001
22.82 K	0.341 ± 0.001
27.12 K	0.602 ± 0.002
31.49 K	0.992 ± 0.002
35.83 K	1.526 ± 0.003
40.18 K	2.149 ± 0.003
44.52 K	2.841 ± 0.003
48.85 K	3.64 ± 0.004
53.19 K	4.446 ± 0.004
57.52 K	5.317 ± 0.004
61.85 K	6.177 ± 0.004
66.18 K	7.052 ± 0.004
70.51 K	7.917 ± 0.004
74.83 K	8.774 ± 0.004
79.16 K	9.582 ± 0.004
83.49 K	10.38 ± 0.01
87.82 K	11.08 ± 0.01
92.15 K	11.77 ± 0.01
96.47 K	12.46 ± 0.01
100.7 K	13.15 ± 0.01
105.1 K	13.74 ± 0.01
109.4 K	14.29 ± 0.01
113.7 K	14.88 ± 0.01
118 K	15.37 ± 0.01
122.4 K	15.87 ± 0.01
126.7 K	16.34 ± 0.01
131 K	16.78 ± 0.01
135.3 K	17.22 ± 0.01
139.7 K	17.63 ± 0.01
144 K	17.97 ± 0.01
148.3 K	18.36 ± 0.01
152.6 K	18.61 ± 0.01
156.9 K	18.93 ± 0.01
161.2 K	19.21 ± 0.01
165.6 K	19.46 ± 0.01
169.9 K	19.74 ± 0.01
174.2 K	20.03 ± 0.01
178.5 K	20.29 ± 0.01
182.8 K	20.49 ± 0.01
187.1 K	20.74 ± 0.01
191.4 K	20.96 ± 0.01
195.7 K	21.15 ± 0.01
200.1 K	21.31 ± 0.01
204.4 K	21.47 ± 0.01
208.7 K	21.66 ± 0.01
213 K	21.83 ± 0.01
217.3 K	22.01 ± 0.01
221.7 K	22.2 ± 0.01
226 K	22.34 ± 0.01
230.3 K	22.46 ± 0.01
234.6 K	22.58 ± 0.01
238.9 K	22.73 ± 0.01
243.3 K	22.82 ± 0.01
247.6 K	22.99 ± 0.01
251.9 K	23.05 ± 0.01
256.2 K	23.21 ± 0.01
260.5 K	23.34 ± 0.01
264.9 K	23.48 ± 0.01
269.2 K	23.61 ± 0.01
273.5 K	23.7 ± 0.01
277.8 K	23.73 ± 0.01
282.1 K	23.82 ± 0.01
286.4 K	23.93 ± 0.01
290.8 K	24.02 ± 0.01
295.1 K	24.12 ± 0.01
299.4 K	24.14 ± 0.01
303.8 K	24.21 ± 0.01

[Nd] [neodymium]
Settings	molar heat capacity at constant pressure [J/K/mol]
2.151 K	0.8396 ± 0.018
2.367 K	1.016 ± 0.019
2.581 K	1.201 ± 0.019
2.795 K	1.394 ± 0.02
3.01 K	1.604 ± 0.02
3.226 K	1.824 ± 0.021
3.438 K	2.061 ± 0.022
3.649 K	2.3 ± 0.023
3.86 K	2.548 ± 0.024
4.072 K	2.809 ± 0.025
4.282 K	3.093 ± 0.026
4.49 K	3.38 ± 0.027
4.705 K	3.673 ± 0.026
4.913 K	3.971 ± 0.026
5.122 K	4.282 ± 0.025
5.177 K	4.343 ± 0.025
5.328 K	4.571 ± 0.024
5.524 K	4.815 ± 0.024
5.736 K	5.023 ± 0.021
5.948 K	5.221 ± 0.02
6.156 K	5.44 ± 0.019
6.362 K	5.633 ± 0.018
6.569 K	5.743 ± 0.018
6.774 K	5.889 ± 0.018
6.98 K	6.064 ± 0.017
7.186 K	6.234 ± 0.015
7.391 K	6.437 ± 0.01
7.596 K	6.646 ± 0.005
7.801 K	6.846 ± 0.001
8.006 K	7.013 ± 0.003
8.204 K	6.953 ± 0.006
8.407 K	6.62 ± 0.008
8.613 K	6.23 ± 0.011
8.819 K	5.945 ± 0.013
9.025 K	5.776 ± 0.014
9.228 K	5.667 ± 0.014
9.431 K	5.598 ± 0.01
9.437 K	5.599 ± 0.01
9.634 K	5.571 ± 0.006
9.84 K	5.554 ± 0.002
10.04 K	5.573 ± 0.001
10.2 K	5.561 ± 0.002
10.39 K	5.603 ± 0.004
10.6 K	5.69 ± 0.005
10.81 K	5.744 ± 0.006
11.01 K	5.812 ± 0.007
11.21 K	5.88 ± 0.008
11.41 K	5.952 ± 0.008
11.63 K	6.046 ± 0.009
11.84 K	6.143 ± 0.009
12.03 K	6.237 ± 0.01
12.24 K	6.337 ± 0.01
12.44 K	6.442 ± 0.011
12.66 K	6.573 ± 0.011
12.86 K	6.675 ± 0.01
13.06 K	6.796 ± 0.012
13.26 K	6.922 ± 0.013
13.47 K	7.055 ± 0.013
13.68 K	7.208 ± 0.013
13.77 K	7.145 ± 0.013
13.88 K	7.299 ± 0.013
14.1 K	7.441 ± 0.014
14.28 K	7.621 ± 0.014
14.48 K	7.747 ± 0.014
14.69 K	7.885 ± 0.016
14.92 K	8.025 ± 0.015
15.12 K	8.197 ± 0.015
15.23 K	8.285 ± 0.015
15.32 K	8.377 ± 0.015
15.77 K	8.706 ± 0.017
16.3 K	9.115 ± 0.017
16.83 K	9.61 ± 0.017
17.36 K	10.08 ± 0.02
17.88 K	10.46 ± 0.02
18.09 K	10.52 ± 0.02
18.42 K	10.87 ± 0.02
18.95 K	11.22 ± 0.01
19.48 K	11.63 ± 0.01
20.09 K	11.62 ± 0.01
20.59 K	11.44 ± 0.01
21.1 K	10.32 ± 0.01
21.61 K	10.49 ± 0.01
22.17 K	11.13 ± 0.02
22.39 K	11.25 ± 0.02
26.7 K	13.57 ± 0.01
31.01 K	15.8 ± 0.01
35.3 K	17.93 ± 0.01
39.6 K	19.66 ± 0.01
43.89 K	21.19 ± 0.01
48.19 K	22.54 ± 0.01
52.48 K	23.47 ± 0.01
56.77 K	24.17 ± 0.01
61.06 K	24.73 ± 0.01
65.35 K	25.19 ± 0.01
69.65 K	25.58 ± 0.01
73.95 K	25.83 ± 0.01
78.25 K	25.98 ± 0.01
82.54 K	26.16 ± 0.01
86.85 K	26.23 ± 0.01
91.14 K	26.36 ± 0.01
95.45 K	26.37 ± 0.01
99.73 K	26.49 ± 0.01
104 K	26.61 ± 0.01
108.3 K	26.65 ± 0.01
112.6 K	26.74 ± 0.01
116.9 K	26.72 ± 0.01
121.2 K	26.78 ± 0.01
125.5 K	26.72 ± 0.01
129.8 K	26.67 ± 0.01
134 K	26.77 ± 0.01
138.3 K	26.81 ± 0.01
142.6 K	26.97 ± 0.01
146.8 K	26.95 ± 0.01
151.1 K	27.04 ± 0.01
155.4 K	27.01 ± 0.01
159.7 K	26.93 ± 0.01
164 K	26.99 ± 0.01
168.3 K	27.12 ± 0.01
172.6 K	27.08 ± 0.01
176.9 K	27.2 ± 0.01
181.2 K	27.26 ± 0.01
185.5 K	27.14 ± 0.01
189.8 K	27.14 ± 0.01
194.1 K	27.14 ± 0.01
198.3 K	27.21 ± 0.01
202.6 K	27.44 ± 0.01
206.9 K	27.36 ± 0.01
211.2 K	27.35 ± 0.01
215.5 K	27.48 ± 0.01
219.8 K	27.48 ± 0.01
224.1 K	27.64 ± 0.01
228.4 K	27.65 ± 0.01
232.7 K	27.61 ± 0.01
237 K	27.52 ± 0.01
241.3 K	27.5 ± 0.01
245.6 K	27.95 ± 0.01
249.8 K	27.71 ± 0.01
254.1 K	27.92 ± 0.01
258.4 K	27.8 ± 0.01
262.7 K	27.77 ± 0.01
267 K	27.72 ± 0.01
271.3 K	28.15 ± 0.01
275.6 K	27.76 ± 0.01
279.9 K	28.06 ± 0.01
284.2 K	28.25 ± 0.01
288.5 K	28.11 ± 0.01
292.8 K	28.27 ± 0.01
297.1 K	28.29 ± 0.01
301.5 K	28.22 ± 0.01
